What all share (assay): Metabolic profiling in hepatocytes
Common to all, as to format: in vitro ADME

For one data set, the system named is human hepatocytes. Conditions: human, 60 min, 10 µM. As for the experimental part:
(§1) For metabolite profiling, MG3.2HCl (10 µM) was incubated with mouse, rat, dog, monkey, and human hepatocytes (300,000 cells/mL for the mouse and 1 × 10^6 cells/mL for the other species) in Leibovitz L-15 medium, at 37 °C. Incubations were performed in a 12-well plate under shaking. Aliquots of the incubation samples, together with a control in medium alone, were taken at t = 0 and 60 min; the metabolism was stopped by the addition of an equal volume of chilled ACN and the samples were centrifuged at 1100 rpm for 20 min. The supernatant was stored at −20 °C until analysis. The analyses were performed using an HPLC system (Agilent) online with a photodiode array (PDA) detector (Agilent) coupled to a Mass Spectrometer Q-TOF 2 (Waters), ESI positive, following the method reported in Table 1.
(§2) The software utilized for searching the accurate masses of possible metabolites was Metabolynx, version 4.1 (Waters Corporation, Milford, MA, USA), with a mass window of 40 mDa. Samples were then re-run in MS/MS mode by selecting the masses of possible metabolites found. The collision energy used to obtain MS/MS data was 25 eV. The proposed identity of metabolites was based on their accurate mass (using LockSpray correction), with an accuracy of +/−5 mDa. MS/MS analyses were performed to verify that peaks were drug-related and to obtain structural information from the fragment ions formed. The structures of some metabolites are proposed. The approximate relative amounts of parent and metabolites were determined from the absolute areas taken from a selected ion chromatogram at the metabolite masses with a mass window of 0.04 Da.

Another data set has as its system rat hepatocytes. Conditions: rat, 60 min, 10 µM. The protocol:
as §1, §2

The next data set deals with dog hepatocytes. Conditions: 1 h, 10 µM. As for the experimental part: as §1, §2
For another data set, the system named is mouse hepatocytes. Conditions: 1 h, 10 µM. The protocol: as §1, §2
A further data set has as its system monkey hepatocytes. Conditions: 1 h, 10 µM. The protocol:
as §1, §2

We go through 1 compound from paper PMC10216263, “Favorable Preclinical Pharmacological Profile of a Novel Antimalarial Pyrrolizidinylmethyl Derivative of 4-amino-7-chloroquinoline with Potent In Vitro and In Vivo Activities” (Biomolecules, 2023).

In the case of `OC(Nc1ccnc2cc(Cl)ccc12)C12CCCN1CCC2` (centres unmarked) [M2], the “% of Total Drug Related Material” value is listed as 1% in the data set on human hepatocytes; 6% in the data set on rat hepatocytes; 27% in the data set with dog hepatocytes; 3% in the data set on mouse hepatocytes; 1% in the data set with monkey hepatocytes.
